Measured values: ChEMBL document CHEMBL6078713, “Synthesis and mechanistic studies of 4-aminoquinoline-Isatin molecular hybrids and Schiff's bases as promising antimicrobial agents” (Eur J Med Chem, 2025)
Converted amounts (≈) assume the structure as drawn. The source made the active and inactive calls. The calls are words filed in the database; no cut-off is given here.

Key:
[1] = system: Enterococcus faecalis; assay: Bactericidal activity against Enterococcus faecalis MTCC 439 assessed as inhibition of bacterial growth incubated overnight; format: functional
[2] = system: Enterococcus faecalis; assay: Antibacterial activity against Enterococcus faecalis MTCC 439 assessed as diameter of zone of inhibition at MIC incubated overnight by disk diffusion method; format: functional
[3] = system: Pseudomonas aeruginosa; assay: Antibacterial activity against Pseudomonas aeruginosa MTCC 2453 assessed as inhibition of bacterial growth incubated overnight by serial dilution based spectrophotometer; format: functional
[4] = system: Salmonella typhi; assay: Bactericidal activity against Salmonella typhi assessed as inhibition of bacterial growth incubated overnight; format: functional, Salmonella enterica subsp. enterica serovar Typhi; settings: Salmonella enterica
[5] = system: Enterococcus faecalis; assay: Ratio of MBC for antibacterial activity against Enterococcus faecalis MTCC 439 to MIC for bactericidal activity against Enterococcus faecalis MTCC 439; format: functional
[6] = system: Escherichia coli; assay: Bacteriostatic activity against Escherichia coli MTCC 443 assessed as reduction in bacterial growth at 2 times MIC measured upto 24 hrs by absorbance based assay; format: functional, organism-based
[7] = system: Bacillus subtilis; assay: Synergistic antibacterial activity against Bacillus subtilis MTCC 736 assessed as inhibition of bacterial growth incubated overnight in presence of ciprofloxacin by serial dilution based spectrophotometer; format: functional
[8] = system: Escherichia coli; assay: Antibacterial activity against Escherichia coli MTCC 443 assessed as diameter of zone of inhibition at 500 ug/ml by agar disk diffusion method; format: functional; settings: read-out: DIZ
[9] = system: Staphylococcus aureus; assay: Antibacterial activity against Staphylococcus aureus MTCC 902 assessed as diameter of zone of inhibition at MIC incubated overnight by disk diffusion method; format: functional
[10] = system: Pseudomonas aeruginosa; assay: Bactericidal activity against Pseudomonas aeruginosa MTCC 2453 assessed as inhibition of bacterial growth incubated overnight; format: functional
[11] = system: Salmonella typhi; assay: Antibacterial activity against Salmonella typhi assessed as diameter of zone of inhibition at 0.5 times MIC incubated overnight by disk diffusion method; format: functional, Salmonella enterica subsp. enterica serovar Typhi
[12] = system: Escherichia coli; assay: Antibacterial activity against Escherichia coli MTCC 443 assessed as diameter of zone of inhibition at 0.5 times MIC incubated overnight by disk diffusion method; format: functional
[13] = system: Escherichia coli; assay: Synergistic antibacterial activity against Escherichia coli MTCC 443 assessed as inhibition of bacterial growth incubated overnight in presence of ciprofloxacin by serial dilution based spectrophotometer; format: functional
[14] = system: Staphylococcus aureus; assay: Antibacterial activity against Staphylococcus aureus MTCC 902 assessed as diameter of zone of inhibition at 500 ug/ml by agar disk diffusion method; format: functional; settings: read-out: DIZ
[15] = system: Pseudomonas aeruginosa; assay: Synergistic antibacterial activity against Pseudomonas aeruginosa MTCC 2453 assessed as inhibition of bacterial growth incubated overnight in presence of ciprofloxacin by serial dilution based spectrophotometer; format: functional
[16] = system: Bacillus subtilis; assay: Antibacterial activity against Bacillus subtilis MTCC 736 assessed as diameter of zone of inhibition at 2 times MIC incubated overnight by disk diffusion method; format: functional
[17] = system: Staphylococcus aureus; assay: Bacteriostatic activity against Staphylococcus aureus MTCC 902 assessed as reduction in bacterial growth at 2 times MIC measured upto 24 hrs by absorbance based assay; format: functional, organism-based
[18] = system: Salmonella typhi; assay: Antibacterial activity against Salmonella typhi assessed as diameter of zone of inhibition at 500 ug/ml by agar disk diffusion method; format: functional, Salmonella enterica subsp. enterica serovar Typhi; settings: Salmonella enterica, read-out: DIZ
[19] = system: Escherichia coli; assay: Synergistic antibacterial activity against Escherichia coli MTCC 443 assessed as fractional inhibitory concentration index incubated overnight in presence of ciprofloxacin by microdilution checkerboard assay; format: functional
[20] = system: Enterococcus faecalis; assay: Antibacterial activity against Enterococcus faecalis MTCC 439 assessed as diameter of zone of inhibition at 500 ug/ml by agar disk diffusion method; format: functional; settings: read-out: DIZ
[21] = system: Bacillus subtilis; assay: Antibacterial activity against Bacillus subtilis MTCC 736 assessed as inhibition of bacterial growth incubated overnight by serial dilution based spectrophotometer; format: functional
[22] = system: Salmonella typhi; assay: Synergistic antibacterial activity against Salmonella typhi assessed as fractional inhibitory concentration index incubated overnight in presence of ciprofloxacin by microdilution checkerboard assay; format: functional, Salmonella enterica subsp. enterica serovar Typhi
[23] = system: Pseudomonas aeruginosa; assay: Antibacterial activity against Pseudomonas aeruginosa MTCC 2453 assessed as diameter of zone of inhibition at 500 ug/ml by agar disk diffusion method; format: functional; settings: read-out: DIZ
[24] = system: Staphylococcus aureus; assay: Synergistic antibacterial activity against Staphylococcus aureus MTCC 902 assessed as inhibition of bacterial growth incubated overnight in presence of ciprofloxacin by serial dilution based spectrophotometer; format: functional
[25] = system: Staphylococcus aureus; assay: Synergistic antibacterial activity against Staphylococcus aureus MTCC 902 assessed as fractional inhibitory concentration index incubated overnight in presence of ciprofloxacin by microdilution checkerboard assay; format: functional
[26] = system: Salmonella typhi; assay: Antibacterial activity against Salmonella typhi assessed as diameter of zone of inhibition at 2 times MIC incubated overnight by disk diffusion method; format: functional, Salmonella enterica subsp. enterica serovar Typhi
[27] = system: Bacillus subtilis; assay: Antibacterial activity against Bacillus subtilis MTCC 736 assessed as diameter of zone of inhibition at 500 ug/ml by agar disk diffusion method; format: functional; settings: read-out: DIZ
[28] = system: Pseudomonas aeruginosa; assay: Ratio of MBC for antibacterial activity against Pseudomonas aeruginosa MTCC 2453 to MIC for bactericidal activity against Pseudomonas aeruginosa MTCC 2453; format: functional
[29] = system: Escherichia coli; assay: Antibacterial activity against Escherichia coli MTCC 443 assessed as diameter of zone of inhibition at MIC incubated overnight by disk diffusion method; format: functional
[30] = system: Escherichia coli; assay: Bactericidal activity against Escherichia coli MTCC 443 assessed as inhibition of bacterial growth incubated overnight; format: functional
[31] = system: Enterococcus faecalis; assay: Antibacterial activity against Enterococcus faecalis MTCC 439 assessed as inhibition of bacterial growth incubated overnight by serial dilution based spectrophotometer; format: functional
[32] = system: Escherichia coli; assay: Antibacterial activity against Escherichia coli MTCC 443 assessed as inhibition of bacterial growth incubated overnight by serial dilution based spectrophotometer; format: functional
[33] = system: Enterococcus faecalis; assay: Synergistic antibacterial activity against Enterococcus faecalis MTCC 439 assessed as fractional inhibitory concentration index incubated overnight in presence of ciprofloxacin by microdilution checkerboard assay; format: functional
[34] = system: Salmonella typhi; assay: Antibacterial activity against Salmonella typhi assessed as inhibition of bacterial growth incubated overnight by serial dilution based spectrophotometer; format: functional, Salmonella enterica subsp. enterica serovar Typhi; settings: Salmonella enterica
[35] = system: Staphylococcus aureus; assay: Ratio of MBC for antibacterial activity against Staphylococcus aureus MTCC 902 to MIC for bactericidal activity against Staphylococcus aureus MTCC 902; format: functional
[36] = system: Staphylococcus aureus; assay: Antibacterial activity against Staphylococcus aureus MTCC 902 assessed as inhibition of bacterial growth incubated overnight by serial dilution based spectrophotometer; format: functional
[37] = system: Bacillus subtilis; assay: Ratio of MBC for antibacterial activity against Bacillus subtilis MTCC 736 to MIC for bactericidal activity against Bacillus subtilis MTCC 736; format: functional
[38] = system: Bacillus subtilis; assay: Synergistic antibacterial activity against Bacillus subtilis MTCC 736 assessed as fractional inhibitory concentration index incubated overnight in presence of ciprofloxacin by microdilution checkerboard assay; format: functional
[39] = system: Staphylococcus aureus; assay: Bactericidal activity against Staphylococcus aureus MTCC 902 assessed as inhibition of bacterial growth incubated overnight; format: functional
[40] = system: Enterococcus faecalis; assay: Synergistic antibacterial activity against Enterococcus faecalis MTCC 439 assessed as inhibition of bacterial growth incubated overnight in presence of ciprofloxacin by serial dilution based spectrophotometer; format: functional
[41] = system: Enterococcus faecalis; assay: Antibacterial activity against Enterococcus faecalis MTCC 439 assessed as diameter of zone of inhibition at 0.5 times MIC incubated overnight by disk diffusion method; format: functional
[42] = system: Staphylococcus aureus; assay: Antibacterial activity against Staphylococcus aureus MTCC 902 assessed as diameter of zone of inhibition at 2 times MIC incubated overnight by disk diffusion method; format: functional
[43] = system: Salmonella typhi; assay: Antibacterial activity against Salmonella typhi assessed as diameter of zone of inhibition at MIC incubated overnight by disk diffusion method; format: functional, Salmonella enterica subsp. enterica serovar Typhi

## Clc1ccc2c(NCC/N=C/c3ccc4ccccc4n3)ccnc2c1
[1]
  MBC: 512 µg/mL (≈ 1420 µM)
[2]
  diameter of the inhibition zone (DIZ): 7 mm
[3]
  MIC: 256 µg/mL (≈ 709 µM)
[4]
  MBC: 128 µg/mL (≈ 355 µM)
[5]
  Ratio: 2
[6]
  Activity: Active
[7]
  MIC: 32 µg/mL
[8]
  zone of inhibition at 500 µg/mL: 11 mm
[9]
  diameter of the inhibition zone (DIZ): 8 mm
[10]
  MBC: 512 µg/mL (≈ 1420 µM)
[11]
  diameter of the inhibition zone (DIZ): 9 mm
[12]
  diameter of the inhibition zone (DIZ): 11 mm
[13]
  MIC: 4 µg/mL
[14]
  zone of inhibition at 500 µg/mL: 8 mm
[15]
  MIC: 64 µg/mL
[16]
  diameter of the inhibition zone (DIZ): 10 mm
[17]
  Activity: Active
[18]
  zone of inhibition at 500 µg/mL: 11 mm
[19]
  fractional inhibitory concentration index (FICI): 0.281
[20]
  zone of inhibition at 500 µg/mL: 10 mm
[21]
  MIC: 128 µg/mL (≈ 355 µM)
[22]
  fractional inhibitory concentration index (FICI): 0.093
[23]
  zone of inhibition at 500 µg/mL: 10 mm
[24]
  MIC: 256 µg/mL
[25]
  fractional inhibitory concentration index (FICI): 1.5
[26]
  diameter of the inhibition zone (DIZ): 12 mm
[27]
  zone of inhibition at 500 µg/mL: 10 mm
[28]
  Ratio: 2
[29]
  diameter of the inhibition zone (DIZ): 11 mm
[30]
  MBC: 128 µg/mL (≈ 355 µM)
[31]
  MIC: 256 µg/mL (≈ 709 µM)
[32]
  MIC: 128 µg/mL (≈ 355 µM)
[33]
  fractional inhibitory concentration index (FICI): 0.312
[34]
  MIC: 128 µg/mL (≈ 355 µM)
[35]
  Ratio: 1
[36]
  MIC: 512 µg/mL (≈ 1420 µM)
[37]
  Ratio: 4
[38]
  fractional inhibitory concentration index (FICI): 1.25
[39]
  MBC: 512 µg/mL (≈ 1420 µM)
[40]
  MIC: 16 µg/mL
[41]
  diameter of the inhibition zone (DIZ): 7 mm
[42]
  diameter of the inhibition zone (DIZ): 10 mm
[43]
  diameter of the inhibition zone (DIZ): 10 mm

## O=[N+]([O-])c1ccccc1/C=N/CCNc1ccnc2cc(Cl)ccc12
[1]
  MBC: 256 µg/mL (≈ 722 µM)
[2]
  diameter of the inhibition zone (DIZ): 10 mm
[3]
  MIC: 128 µg/mL (≈ 361 µM)
[4]
  MBC: 64 µg/mL (≈ 180 µM)
[5]
  Ratio: 2
[6]
  Activity: Active
[7]
  MIC: 32 µg/mL
[8]
  zone of inhibition at 500 µg/mL: 11 mm
[9]
  diameter of the inhibition zone (DIZ): 8 mm
[10]
  MBC: 128 µg/mL (≈ 361 µM)
[11]
  diameter of the inhibition zone (DIZ): 6 mm
[12]
  diameter of the inhibition zone (DIZ): 6 mm
[13]
  MIC: 8 µg/mL
[14]
  zone of inhibition at 500 µg/mL: 10 mm
[15]
  MIC: 64 µg/mL
[16]
  diameter of the inhibition zone (DIZ): 11 mm
[17]
  Activity: Active
[18]
  zone of inhibition at 500 µg/mL: 12 mm
[19]
  fractional inhibitory concentration index (FICI): 0.124
[20]
  zone of inhibition at 500 µg/mL: 13 mm
[21]
  MIC: 128 µg/mL (≈ 361 µM)
[22]
  fractional inhibitory concentration index (FICI): 0.077
[23]
  zone of inhibition at 500 µg/mL: 11 mm
[24]
  MIC: 64 µg/mL
[25]
  fractional inhibitory concentration index (FICI): 1.25
[26]
  diameter of the inhibition zone (DIZ): 8 mm
[27]
  zone of inhibition at 500 µg/mL: 12 mm
[28]
  Ratio: 1
[29]
  diameter of the inhibition zone (DIZ): 7 mm
[30]
  MBC: 128 µg/mL (≈ 361 µM)
[31]
  MIC: 128 µg/mL (≈ 361 µM)
[32]
  MIC: 128 µg/mL (≈ 361 µM)
[33]
  fractional inhibitory concentration index (FICI): 0.265
[34]
  MIC: 64 µg/mL (≈ 180 µM)
[35]
  Ratio: 1
[36]
  MIC: 256 µg/mL (≈ 722 µM)
[37]
  Ratio: 1
[38]
  fractional inhibitory concentration index (FICI): 0.5
[39]
  MBC: 256 µg/mL (≈ 722 µM)
[40]
  MIC: 2 µg/mL
[41]
  diameter of the inhibition zone (DIZ): 9 mm
[42]
  diameter of the inhibition zone (DIZ): 9 mm
[43]
  diameter of the inhibition zone (DIZ): 11 mm
